Experimental data as given in patent publication US8673578B2, “Methods of identifying antagonists of the hTAS2R46 bitter taste receptor” (Deutsches Institut für Ernahrungsforschung Potsdam-Rehbrücke, priority 2009, dated 2014).

Key:
hTAS2R44 = molecular target: T1, hTAS2R44 (Homo sapiens, UniProt P59538, L162M); test: calcium imaging (FLIPR), activation of hTAS2R-transfected HEK293T-Gα16gust44 cells; format: cell-based
T1 construct: expressed in transfected cells; host or cells: HEK293T cells stably expressing chimeric Gα16gust44, transient transfection
T1 sequence (P59538 1-309 L162M): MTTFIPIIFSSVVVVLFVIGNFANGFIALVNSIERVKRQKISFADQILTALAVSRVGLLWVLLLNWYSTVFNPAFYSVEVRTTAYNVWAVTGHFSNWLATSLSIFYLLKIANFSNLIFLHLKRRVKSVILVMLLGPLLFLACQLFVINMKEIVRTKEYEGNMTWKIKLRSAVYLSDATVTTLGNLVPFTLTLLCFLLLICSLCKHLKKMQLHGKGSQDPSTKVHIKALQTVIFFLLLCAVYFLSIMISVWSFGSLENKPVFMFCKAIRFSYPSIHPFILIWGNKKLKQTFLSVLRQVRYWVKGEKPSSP
From the text: (§1) Human TAS2R cDNAs were cloned into pcDNA5/FRT (Invitrogen, San Diego, Calif.). For adequate plasma membrane targeting, receptor cDNA was fused to the aminoterminal sequence of the rat somatostatin type 3 receptor at the aminoterminus of the recombinant protein (Bufe, B., T. Hofmann, et al. (2002) Nat Genet. 32(3): 397-401). For immunological detection, the Herpes simplex Glycoprotein D epitope was supplemented at the carboxyterminus of the recombinant protein (Bufe et al., supra). Receptor constructs were transiently transfected into HEK293T cells stably expressing the chimeric G protein subunit Gα16gust44 (Ueda, T., S. Ugawa, et al. (2003) J Neurosci 23(19): 7376-80) using Lipofectamine 2000 (Invitrogen, San Diego, Calif.) in 96-well plates.
(§2) Calcium Imaging experiments were performed 24 h after transfection using a Fluorometric Imaging Plate Reader (FLIPR, Molecular Devices, Munich, Germany) as previously described (Bufe et al., supra). Taste active compounds were ordered from Sigma (Sigma-Aldrich, Taufkirchen, Germany). Absinthin, 3β hydroxy dihydro costunolide and 3β hydroxy pelenolide were kindly provided by Giovanni Appendino (Novara, Italy). Test substances were directly dissolved in C1 buffer (130 mM NaCl, 10 mM Na-Hepes, 10 mM Glucose, 5 mM KCl, 2 mM CaCl2, pH 7.4) or in DMSO, respectively. DMSO stocks were further diluted in C1 buffer not exceeding a final DMSO concentration of 1% on the cells. For the investigation of antagonistic effects, test substances were premixed. Agonists were applied at concentrations corresponding to EC90, except where indicated otherwise (Table 2). Data were collected from 3 independent experiments performed in quadruplicates and processed with SigmaPlot (SPSS, Chicago, Ill.). Fluorescence signals after application of test substances were corrected for and normalized to background fluorescence (ΔF/F═(F−F0)/F0), and baseline noise was subtracted. Calculation of dose-response curves was done by nonlinear regression using the function f(y)=((a−d)/(1+(x/EC50)^nH)+d).
In a first series of experiments we tested the two sesquiterpene lactones 3β hydroxy dihydro costunolide (formula (I) in FIG. 1) and 3β hydroxy pelenolide (formula (II) in FIG. 1) for their ability to activate hTAS2 receptor-expressing HEK293T cells.
Signal amplitudes were comparatively small (FIG. 2C).

hTAS2R46 = molecular target: T2, hTAS2R46 (Homo sapiens, UniProt P59540); test: as above; format: cell-based; conditions: 100 μM test substance, bath application
T2 construct: expressed in transfected cells; host or cells: HEK293T cells stably expressing chimeric Gα16gust44, transient transfection
T2 sequence (P59540 1-309): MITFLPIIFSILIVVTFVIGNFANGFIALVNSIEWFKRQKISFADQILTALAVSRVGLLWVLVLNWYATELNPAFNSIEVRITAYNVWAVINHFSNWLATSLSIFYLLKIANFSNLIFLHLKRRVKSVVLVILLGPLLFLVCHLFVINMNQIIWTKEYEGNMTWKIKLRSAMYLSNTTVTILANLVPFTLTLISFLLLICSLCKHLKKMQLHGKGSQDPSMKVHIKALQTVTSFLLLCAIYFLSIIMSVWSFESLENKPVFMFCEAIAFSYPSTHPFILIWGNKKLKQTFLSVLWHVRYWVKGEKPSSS
From the text: as §1
as §2, with “f(y)=((a−d)/(1+(x/EC50)^nH)+d). […]” for “f(y)=((a−d)/(1+(x/EC50)^nH)+d).”
Finally, the impact of chemical modifications on the antagonistic properties of 3β hydroxy dihydro costunolide on hTAS2R46-expressing cells was studied. Derivatives of 3β hydroxy dihydro costunolide with site-directed modifications at C3 and C11 were generated (FIG. 7A) These derivatives were tested for activation or inhibition of hTAS2R46-expressing cells in the absence or presence of the agonist strychnine (3 μM) and half-maximum effective concentrations (EC50) or half-maximal inhibitory concentrations were calculated (FIG. 7B).

Row | Structure (SMILES) | calcium response of hTAS2R44-transfected cells (hTAS2R44; 100 μM test substance, bath application) | EC50 (hTAS2R44; concentration-response, intracellular calcium) [µM] | calcium response of hTAS2R46-transfected cells (hTAS2R46)
1 | C/C1=C\C[C@H](O)/C(C)=C/[C@H]2OC(=O)[C@@H](C)C2CC1 (stereo partly drawn) [3β hydroxy dihydro costunolide] | responded | 31.5 ± 7.4 | –
2 | C/C1=C\C[C@H](O)[C@@H](C)C[C@H]2OC(=O)[C@@H](C)[C@@H]2CC1 [3β hydroxy pelenolide] | – | – | displayed calcium signals
